Holding throughout (type): physicochemical
Series [1] in a line: solubility in water / aqueous environments.
A short description of series [2]: hygroscopicity of the crystalline non-solvate form in humid or dry air.
A short description of series [3]: solid-form stability on standing (conversion to other forms). The conditions noted are these: crystalline non-solvate form.

This note sets out measurements from US7863307B2, “Process for synthesizing a CETP inhibitor” (priority 2005, dated 2011).

“Also recorded” adds a separate entry of the source.

As for `COc1cc(F)c(C(C)C)cc1-c1ccc(C(F)(F)F)cc1CN1C(=O)O[C@H](c2cc(C(F)(F)F)cc(C(F)(F)F)c2)[C@@H]1C` [compound 12, (4S,5R)-5-[3,5-bis(trifluoromethyl)phenyl]-3-{[4′-fluoro-5′-isopropyl-2′-methoxy-4-(trifluoromethyl)biphenyl-2-yl]methyl}-4-methyl-1,3-oxazolidin-2-one], in series [1], the solubility in water result is “very poorly soluble in water”. For the same compound, in series [2], the hydrate formation result is listed as “does not convert to a hydrate in humid or dry air” and the hygroscopicity result was “non-hygroscopic”. In addition, in series [3] (elevated temperatures), the “conversion of crystal form on standing” value is reported as “converts more rapidly to the amorphous form at elevated temperatures”. Also, in series [3] (room temperature), the “conversion of crystal form on standing” value is reported as “slowly converts to the amorphous form on standing for long periods of time; also recorded: stable at room temperature for moderate periods of time with respect to changing to the amorphous form”.
